From ChEMBL document CHEMBL1201862, “PubChem BioAssay data set” (2004)
The source made the active and inactive calls.

Key:
[1] = A549 cell cytotoxicity, dose response, cytotoxicity control, plate reader, cherry-pick, antagonist series (AID 743412); type: functional, cell-based
[2] = microbe, parasite or virus in culture; type: functional; details: Mycobacterium tuberculosis
[3] = off-target signal loss in HeLa-CEM21 co-culture – HeLa F-luc CTL cells, cherry-picked, counter-screen for HIV-1 Env fusion inhibitor project, dose response (AID 652040); type: functional, cell-based;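 further: potency for signal decrease marking cytotoxic or nonspecific inhibition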
[4] = blockers of HIV-1 envelope-mediated cell-cell fusion – cherry-pick, dose response (AID 652057); type: functional, cell-based
[5] = blockers of HIV-1 ZM109 envelope-driven cell-cell fusion – HeLa effector, CEM target cells, luciferase, cherry-pick, dose response (AID 652058); type: functional, cell-based;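 further: luciferase signal from HIV-1 Env mediated cell-cell fusion of effector and target cells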
[6] = HIV-1 AD8 envelope cell-cell fusion blockers – cherry-pick, dose response (AID 652062); type: functional, cell-based;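 further: luciferase signal from cell-cell fusion driven by HIV-1 clade B AD8 Env; potency is for inhibitors of fusion seen as a drop in luminescence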
[7] = viability loss in CEM21 cells – cell-based, CellTiter-Glo luminescence, cherry-picked, cytotoxicity control for viral fusion inhibitor project, dose response (AID 652042); type: functional;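 further: potency for signal decrease meaning cytotoxicity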
[8] = molecular target: T1, DNA repair protein RAD52 homolog (Homo sapiens, UniProt P43351); type: functional, biochemical
T1 sequence (P43351 whole entry): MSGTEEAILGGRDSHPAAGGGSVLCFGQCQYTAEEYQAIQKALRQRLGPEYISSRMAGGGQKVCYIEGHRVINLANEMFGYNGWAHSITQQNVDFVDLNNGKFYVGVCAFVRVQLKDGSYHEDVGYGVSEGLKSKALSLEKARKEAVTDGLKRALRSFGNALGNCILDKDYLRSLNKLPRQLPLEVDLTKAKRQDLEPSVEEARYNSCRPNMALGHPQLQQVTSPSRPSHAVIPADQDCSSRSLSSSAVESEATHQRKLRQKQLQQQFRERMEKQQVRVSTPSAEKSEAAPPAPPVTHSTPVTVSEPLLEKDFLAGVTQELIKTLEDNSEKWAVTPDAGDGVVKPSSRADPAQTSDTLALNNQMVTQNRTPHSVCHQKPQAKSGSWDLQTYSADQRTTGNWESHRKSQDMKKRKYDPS

[9] = IGROV1 cell killing – plate reader, dry powder samples, PAX8 inhibitor project, dose response (AID 743043); type: functional, cell-based; details: IGROV-1
Paired box protein Pax-8 = Paired box protein Pax-8 (Homo sapiens, UniProt Q06710); experiment: PAX8 transcriptional activity inhibition in RMG-I – RMG-I cells, luciferase, cherry-pick, dose response (AID 687027); type: functional, cell-based;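 further: luciferase reporter driven by Pax8 target thyroperoxidase promoter measured by SteadyGlo luminescence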
Paired box protein Pax-8, sequence (Q06710 whole entry): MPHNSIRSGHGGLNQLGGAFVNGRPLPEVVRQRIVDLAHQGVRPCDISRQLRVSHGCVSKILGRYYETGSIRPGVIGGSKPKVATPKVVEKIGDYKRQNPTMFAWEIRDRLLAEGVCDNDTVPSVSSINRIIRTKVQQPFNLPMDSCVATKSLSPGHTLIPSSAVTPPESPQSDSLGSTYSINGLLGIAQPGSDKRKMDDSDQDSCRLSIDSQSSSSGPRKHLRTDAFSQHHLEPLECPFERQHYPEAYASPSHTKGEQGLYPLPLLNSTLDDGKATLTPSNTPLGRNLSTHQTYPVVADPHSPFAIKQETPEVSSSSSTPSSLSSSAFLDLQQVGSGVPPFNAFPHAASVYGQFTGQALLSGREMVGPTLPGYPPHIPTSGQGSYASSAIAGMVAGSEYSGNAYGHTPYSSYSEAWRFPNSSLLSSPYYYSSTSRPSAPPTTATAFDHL

[10] = general cell-killing toxicity readout – plate reader, dry powder samples, cytotoxicity control for PAX8 inhibitor project, dose response (AID 743021); type: functional, cell-based
[11] = OVCAR-3 cell viability loss – plate reader, dry powder samples, PAX8 inhibitor project, dose response (AID 743044); type: functional, cell-based
[12] = OVCAR8 cell viability loss – plate reader, dry powder samples, PAX8 project, dose response (AID 743197); type: functional, cell-based; details: OVCAR-8
[13] = molecular target: Glucose-6-phosphate 1-dehydrogenase (Homo sapiens, UniProt P11413); experiment: inhibition of Homo sapiens G6PD, dose series – biochemical, fluorescence, selectivity assay for P. falciparum G6PD inhibitor project, dose response (AID 504792); type: functional
Glucose-6-phosphate 1-dehydrogenase, sequence (P11413 whole entry): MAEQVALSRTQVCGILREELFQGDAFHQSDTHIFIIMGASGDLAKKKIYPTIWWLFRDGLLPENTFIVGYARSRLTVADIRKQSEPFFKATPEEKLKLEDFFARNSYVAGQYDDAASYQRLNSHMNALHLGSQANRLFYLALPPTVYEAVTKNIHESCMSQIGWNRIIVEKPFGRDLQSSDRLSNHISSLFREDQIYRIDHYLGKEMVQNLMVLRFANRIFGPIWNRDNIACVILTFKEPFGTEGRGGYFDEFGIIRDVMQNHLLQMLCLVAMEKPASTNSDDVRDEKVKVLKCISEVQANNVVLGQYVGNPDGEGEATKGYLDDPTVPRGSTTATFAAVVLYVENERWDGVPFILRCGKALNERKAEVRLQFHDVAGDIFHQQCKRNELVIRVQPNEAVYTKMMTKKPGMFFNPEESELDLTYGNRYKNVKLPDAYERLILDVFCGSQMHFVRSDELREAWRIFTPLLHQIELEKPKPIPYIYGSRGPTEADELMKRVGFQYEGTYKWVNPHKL

[14] = molecular target: T2, Rac GTPase-activating protein 1 (Homo sapiens, UniProt Q9H0H5); experiment: blockers of MgcRacGAP-driven Rac1 GTP hydrolysis – biochemical, ADP Hunter fluorescence, primary and confirmatory, confirmation (AID 624330); type: functional
T2 sequence (Q9H0H5 whole entry): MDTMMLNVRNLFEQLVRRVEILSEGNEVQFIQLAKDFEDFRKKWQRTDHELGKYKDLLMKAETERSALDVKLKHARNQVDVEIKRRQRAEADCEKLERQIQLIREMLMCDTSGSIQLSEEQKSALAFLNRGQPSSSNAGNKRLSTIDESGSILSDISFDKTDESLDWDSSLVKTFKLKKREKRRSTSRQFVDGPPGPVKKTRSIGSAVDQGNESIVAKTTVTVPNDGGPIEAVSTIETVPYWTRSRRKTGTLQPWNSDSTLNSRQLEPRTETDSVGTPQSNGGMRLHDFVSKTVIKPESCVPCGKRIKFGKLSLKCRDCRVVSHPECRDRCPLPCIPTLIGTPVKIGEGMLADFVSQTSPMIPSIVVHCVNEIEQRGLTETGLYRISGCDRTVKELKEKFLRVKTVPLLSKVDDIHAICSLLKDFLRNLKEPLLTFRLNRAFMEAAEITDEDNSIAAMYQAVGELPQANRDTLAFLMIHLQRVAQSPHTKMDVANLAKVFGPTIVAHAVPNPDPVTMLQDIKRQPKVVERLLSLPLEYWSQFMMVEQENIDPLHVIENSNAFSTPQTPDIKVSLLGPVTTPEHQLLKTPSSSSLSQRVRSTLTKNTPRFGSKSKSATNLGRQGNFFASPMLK

[15] = T. cruzi growth inhibition in host cells, dose response, cell-based, plate reader, dry powder, set 2 (AID 652275); type: functional
[16] = activation of miR-122 Renilla sensor silencing – cell-based, Huh7 psiCHECK-miR122, Renilla luciferase, cherry-picked, dose response (AID 651956); type: functional;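 further: huh7 hepatoma cells stably carrying a psiCHECK-2 miR-122 sensor plasmid; renilla luciferase signal reporting endogenous miR-122 activity after 48 h compound exposure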
[17] = general mammalian cell viability loss – activator set, cherry-pick, cytotoxicity control for miR-122 modulator project, dose response (AID 720690); type: functional, cell-based;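 further: HEK293T human cells scored for general mammalian cytotoxicity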
HeLa = experiment: viability loss in HeLa cells – cell-based, ATP luminescence, cherry-pick samples, cytotoxicity control, dose response (AID 687004); type: functional; details: Homo sapiens
[18] = general mammalian cell viability loss – inhibitor set, cherry-pick, set 2, cytotoxicity control for miR-122 modulator project, dose response (AID 720697); type: functional, cell-based
[19] = molecular target: Heat shock protein HSP 90-alpha (Homo sapiens, UniProt P07900); type: functional, organism-based
[20] = Trypanosoma cruzi growth suppression in host cells – NIH3T3 host cells, beta-gal luminescence, confirmation (AID 2044); type: functional, cell-based;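 further: intracellular parasites grown in NIH/3T3 mouse fibroblasts as host cells; luminescent beta-galactosidase reporter signal from transgenic T. cruzi replicating inside host cells; inhibitors lower the luminescence signal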
[21] = NIH3T3 cell viability loss – ATP luminescence, mouse fibroblasts, counter-screen, dose response (AID 2010); type: functional, cell-based;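 further: cells exposed to compound for about 90 hours before reading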
[22] = loss of viability in HepG2 cells – cell-based, CellTiter-Glo, cherry-picked, cytotoxicity control for Shn3 inhibitor project, dose response (AID 624134); type: functional
[23] = molecular target: T3, Heat shock factor protein 1 (Mus musculus, UniProt P38532); experiment: decrease of HSF1-responsive luciferase luminescence – cell-based, NIH3T3, dose retest, confirmation (AID 2382); type: functional;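 further: NIH3T3 fibroblasts with HSF1-driven luciferase reporter stressed by proteasome inhibitor MG132; luminescence from HSF1-driven luciferase expression after 8 hours of MG132 stress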
T3 sequence (P38532 whole entry): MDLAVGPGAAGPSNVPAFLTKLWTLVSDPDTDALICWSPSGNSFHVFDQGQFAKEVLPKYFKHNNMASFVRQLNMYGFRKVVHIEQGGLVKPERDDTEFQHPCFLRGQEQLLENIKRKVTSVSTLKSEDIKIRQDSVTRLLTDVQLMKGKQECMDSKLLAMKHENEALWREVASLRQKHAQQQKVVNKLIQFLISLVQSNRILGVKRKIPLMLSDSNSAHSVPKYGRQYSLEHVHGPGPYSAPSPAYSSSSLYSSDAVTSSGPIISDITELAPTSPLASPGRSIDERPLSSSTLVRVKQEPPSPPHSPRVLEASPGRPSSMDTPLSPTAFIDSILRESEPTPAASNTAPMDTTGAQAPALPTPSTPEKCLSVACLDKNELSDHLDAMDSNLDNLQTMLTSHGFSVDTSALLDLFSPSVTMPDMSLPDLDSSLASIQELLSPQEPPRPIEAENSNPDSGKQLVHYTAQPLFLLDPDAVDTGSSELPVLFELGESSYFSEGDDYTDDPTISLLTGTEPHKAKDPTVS

[24] = non-specific 3'UTR reporter inhibition in Clone20-Shn3RL – cell-based, Renilla luciferase, cherry-picked, counter-screen for Shn3 inhibitor project, dose response (AID 624133); type: functional
cells [25] = type: functional, cell-based
Streptococcus = experiment: GAS UMAA2166 growth inhibition – luminescence, BacTiterGlo, counter-screen for streptokinase expression inhibitor project, dose response (AID 1915); type: functional, organism-based;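 further: potency for reduction of bacterial viability or growth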
[26] = tested on: Streptococcus sp. 'group A'; experiment: Streptococcus pyogenes SK(-)GAS viability under kanamycin – luminescence, BacTiterGlo, confirmation, counter-screen for streptokinase expression inhibitor project, dose response (AID 1900); type: functional, organism-based
cells [27] = type: functional, cell-based; remark: listed apart in the source
[28] = reduction of Shn3 3'UTR-driven luciferase in osteoblasts – cell-based, Clone20 osteoblasts, firefly luciferase, cherry-picked, dose response (AID 624132); type: functional;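 further: firefly luciferase luminescence from reporter carrying the Shn3 3'UTR in osteoblasts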
[29] = molecular target: T4, Oxysterols receptor LXR-beta (Homo sapiens, UniProt P55055); type: functional, cell-based;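 further: agonist activity at LXR measured by a cell-based luminescence readout across a dose range, run as a counterscreen for daf-12 agonists; HEK293 cells with Gal4-LXR fusion and GAL4-driven luciferase reporter; potency for activation of Gal4-LXR reporter so compounds are agonists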
T4 sequence (P55055 whole entry): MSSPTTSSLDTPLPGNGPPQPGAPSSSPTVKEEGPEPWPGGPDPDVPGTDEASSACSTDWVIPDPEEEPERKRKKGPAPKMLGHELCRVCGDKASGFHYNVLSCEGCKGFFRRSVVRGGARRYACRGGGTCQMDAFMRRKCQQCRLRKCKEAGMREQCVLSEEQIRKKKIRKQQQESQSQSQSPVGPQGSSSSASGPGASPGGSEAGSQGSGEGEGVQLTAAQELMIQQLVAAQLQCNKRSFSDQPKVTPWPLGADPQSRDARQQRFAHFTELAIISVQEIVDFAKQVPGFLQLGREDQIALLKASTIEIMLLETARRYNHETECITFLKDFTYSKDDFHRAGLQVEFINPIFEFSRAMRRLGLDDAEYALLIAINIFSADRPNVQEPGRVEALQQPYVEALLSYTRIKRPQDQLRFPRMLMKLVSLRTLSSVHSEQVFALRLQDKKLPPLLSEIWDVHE

Cc1ccc(-n2cc(CN(C)Cc3nccn3C)c(-c3cccc(C)c3)n2)cc1
AC50 [1]: > 52 µM (inactive) | CC50 [2]: > 40 µM (active)

O=C1[C@H](Cc2ccccc2)NCCCC[C@H](c2ccco2)N1Cc1ccccc1
AC50 [3]: 7.61 µM (active) | AC50 [4]: 4.38 µM (active) | AC50 [5]: 10.4 µM (active) | AC50 [6]: 35.3 µM (active) | AC50 [7]: 39.9 µM (active)

Cc1ccc(-c2csc(NC(=O)C[n+]3cc(-c4ccccc4)n4c3CCC4)n2)cc1
AC50 [8]: 21.1 µM (active)

C[C@@H]1CCCCO[C@H](CN(C)Cc2ccc(Cl)c(Cl)c2)[C@@H](C)CN([C@@H](C)CO)C(=O)c2cc(NC(=O)c3ccccc3)ccc2O1
AC50 [9]: 47.5 µM (active) | AC50 (Paired box protein Pax-8): 8.87 µM (active) | AC50 [10]: 52.7 µM (active) | AC50 [11]: 43.1 µM (active) | AC50 [12]: 60 µM (active)

Cc1cccc(S(=O)(=O)N2CCCCN3[C@H](CO)[C@H](c4ccc(C#C[C@H](C)O)cc4)[C@H]3C2)c1
AC50 [9]: 17.6 µM (active) | AC50 (Paired box protein Pax-8): 7.18 µM (active) | AC50 [11]: 30.4 µM (active) | AC50 [12]: > 70 µM (inactive)

COc1cc(-c2cc(OC)c(O)c(OC)c2)cc(OC)c1O
IC50 [13]: > 80 µM (inactive) | AC50 [7]: 27.4 µM (active) | IC50 [14]: 88.4 µM (active)

CC(C)N1CC2(CN(Cc3ccc(Cl)cc3)C2)Oc2c(NC(=O)c3ccncc3)cccc2C1=O
AC50 [15]: 136 nM (active)

Cc1ccccc1-c1ccc([C@@H]2[C@H](CO)N3CCCCN(C(=O)Nc4cccc(F)c4)C[C@@H]23)cc1
AC50 [16]: 9.43 µM (active) | AC50 [17]: 13.7 µM (active) | AC50 [9]: 35.5 µM (active) | AC50 (Paired box protein Pax-8): 19.6 µM (active) | AC50 [10]: 3.19 µM (active) | AC50 [11]: 20.4 µM (active)

CC(C)N1C(=O)c2cccc(NC(=O)c3ccncc3)c2O[C@H](CN(C)Cc2ccc(Cl)cc2)[C@H]1C
AC50 [15]: 0.96 nM (active)

N#C[C@@H]1[C@H](c2ccc(-c3ccccc3F)cc2)[C@@H](CO)N1C(=O)c1ccccn1
AC50 [4]: 62.6 µM (active) | AC50 [7]: 67 µM (active)

CCNC(=O)Nc1ccc2c(c1)C(=O)N(C)[C@H]1CC[C@H](CC(=O)Nc3ccccc3F)O[C@@H]1CO2
AC50 (HeLa): 264 nM (active) | AC50 [18]: 2.11 µM (active)

Cc1nc2cc(Oc3nc(NCCN(C)C)nc4ccsc34)ccc2s1
AC50 [8]: 21 µM (active)

COCC(=O)Nc1ccc2c(c1)C(=O)N(C)[C@@H]1CC[C@H](CC(=O)N3CCc4ccccc4C3)O[C@H]1CO2
AC50 [17]: 37 µM (active) | AC50 [18]: 9.29 µM (active)

CC(=O)NC(c1ccc(C)cc1)c1cc(Cl)c2cccnc2c1O (configuration not stated)
AC50 [19]: 3.52 µM (active) | EC50 [20]: 655 nM (active) | AC50 [16]: 37.4 µM (active) | AC50 [17]: 2.8 µM (active) | EC50 [21]: 763 nM (active) | AC50 [22]: 4.67 µM (active) | EC50 [23]: 911 nM (active) | AC50 [24]: 3.29 µM (active) | EC50 (cells [25]): > 350 µM (not active) | EC50 (Streptococcus): 6.97 µM (active) | EC50 [26]: 1.38 µM (active) | EC50 (cells [27]): 14.7 µM (active) | AC50 [28]: 2.12 µM (active)

Cc1nnc(SCC(=O)Nc2nsc(-c3ccc(C(C)(C)C)cc3)n2)s1
EC50 [29]: > 67.5 µM (inactive)

CC(C)(C)[S+]([O-])N1Cc2cc(C(=O)NCc3ccc4c(c3)OCO4)nc(-c3cccc(-c4cccc(F)c4)c3)c2[C@H]1CCO (some centres not stated)
AC50 [15]: 394 nM (active)

O=C(CN1CCCCC1)Nc1ccc(N2CCCCCC2)cc1
AC50 [8]: 22.8 µM (active) | IC50 [14]: 126 µM (active)
